One assay concerns the target T1, human AT1 receptor (Homo sapiens, UniProt P30556).
T1 construct: expressed in transfected cells; host or cells: CHO-K1
T1 sequence (P30556 1-359): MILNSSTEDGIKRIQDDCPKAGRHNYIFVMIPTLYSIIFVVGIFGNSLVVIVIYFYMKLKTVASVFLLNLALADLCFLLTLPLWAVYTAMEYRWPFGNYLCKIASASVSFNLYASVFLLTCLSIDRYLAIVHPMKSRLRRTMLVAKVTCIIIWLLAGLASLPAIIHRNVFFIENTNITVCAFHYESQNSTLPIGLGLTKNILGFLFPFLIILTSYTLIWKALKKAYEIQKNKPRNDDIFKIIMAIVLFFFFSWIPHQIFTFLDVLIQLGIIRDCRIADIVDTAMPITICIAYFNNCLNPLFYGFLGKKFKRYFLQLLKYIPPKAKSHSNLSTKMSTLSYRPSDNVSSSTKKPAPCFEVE
Put plainly: AT1 radioligand binding assay (displacement of [Eu]AngII). To be noted: membranes of CHO-K1 cells expressing cloned human AT1 receptor; values given as lower bounds; read-out: AT1 pKi (converted). The essentials:
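Membranes from CHO-K1 cells stably expressing cloned human AT1, 0.2 μg protein, in 50 mM Tris/HCl pH 7.5, 5 mM MgCl2, 0.025% BSA. Compounds displaced [Eu]AngII over 120 min in the dark at room temperature or 37° C; filter-bound TRF read. Nonspecific binding with 10 μM angiotensin II; IC50 converted to Ki via Cheng-Prusoff, reported as pKi.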

The target of a further assay is T2, NEP enzyme (Homo sapiens, UniProt P08473).
T2 construct: purchased R&D Systems, Minneapolis, Minn; 1182-ZN
Description: NEP enzyme inhibition assay (fluorogenic peptide substrate). To be noted: values given as lower bounds; * = prodrugs, may not exhibit NEP activity in an in vitro assay; read-out: NEP pIC50 (converted). The assay is classed as biochemical. The gist of the method:
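Recombinant human NEP was run with Mca-BK2 (10 μM) at room temperature in Tris buffer with 1 μM Zn. Compounds (10 μM–20 pM, 12 points) were pre-equilibrated 10 min, then reacted 20 min and acid-stopped. Fluorescence ex 320/em 405 nm, one-site competition fit gives pIC50. Thiol compounds may be pre-treated with 400 μM TCEP.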

The structures appear in SMILES notation. Bounds are passed on as bounds.

T2 sequence (P08473 52-750 limits assumed): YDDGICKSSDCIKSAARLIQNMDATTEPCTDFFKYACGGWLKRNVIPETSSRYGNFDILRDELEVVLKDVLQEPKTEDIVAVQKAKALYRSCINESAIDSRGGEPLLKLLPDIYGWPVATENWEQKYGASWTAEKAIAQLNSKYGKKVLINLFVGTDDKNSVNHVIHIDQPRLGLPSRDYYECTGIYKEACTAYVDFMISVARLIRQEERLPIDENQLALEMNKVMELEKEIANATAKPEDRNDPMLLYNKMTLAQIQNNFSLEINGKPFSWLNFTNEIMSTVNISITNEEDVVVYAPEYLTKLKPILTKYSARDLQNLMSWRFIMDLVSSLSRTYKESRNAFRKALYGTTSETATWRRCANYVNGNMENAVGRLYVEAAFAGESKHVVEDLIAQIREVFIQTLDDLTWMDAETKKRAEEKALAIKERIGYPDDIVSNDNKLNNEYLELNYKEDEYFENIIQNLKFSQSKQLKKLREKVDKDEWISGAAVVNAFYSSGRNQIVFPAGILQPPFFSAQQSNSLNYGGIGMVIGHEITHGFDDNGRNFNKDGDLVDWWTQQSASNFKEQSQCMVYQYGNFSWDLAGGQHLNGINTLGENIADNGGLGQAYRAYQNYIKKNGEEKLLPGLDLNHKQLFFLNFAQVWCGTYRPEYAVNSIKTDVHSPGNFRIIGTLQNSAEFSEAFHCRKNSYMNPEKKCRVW

For `CCCc1cc(C(=O)N[C@H](Cc2ccccc2)[C@@H](O)C(=O)O)nn1Cc1ccc(-c2ccccc2S(=O)(=O)NC(=O)N2CCOCC2)cc1` [Example 7-22, (2R,3R)-2-Hydroxy-3-[(1-{2′-[(morpholine-4-carbonyl)sulfamoyl]biphenyl-4-ylmethyl}-5-propyl-1H-pyrazole-3-carbonyl)amino]-4-phenylbutyric acid], the Ki on human AT1 receptor is at most 100 nM. For the same molecule, the IC50 at NEP enzyme was at most 100 nM.

Regarding `CCCc1cc(C(=O)N[C@@H](CC(=O)O)CC(C)C)nn1Cc1ccc(-c2ccccc2-c2nnn[nH]2)nc1` [Example 14-7, (R)-5-Methyl-3-[(5-propyl-1-{6-[2-(1H-tetrazol-5-yl)-phenyl]-pyridin-3-ylmethyl}-1H-pyrazole-3-carbonyl)-amino]hexanoic acid], on human AT1 receptor, the Ki was at most 10 nM. The IC50 at NEP enzyme was at most 100 nM.

In the case of `CCCc1cc(C(=O)N[C@H](Cc2ccccc2)[C@@H](O)C(=O)O)nn1Cc1ccc(-c2ccccc2S(=O)(=O)NC(C)=O)cc1F` [Example 6-14, (2R,3R)-3-(1-((2′-(N-acetylsulfamoyl)-3-fluorobiphenyl-4-yl)methyl)-5-propyl-1H-pyrazole-3-carboxamido)-2-hydroxy-4-phenylbutanoic acid], on human AT1 receptor, the Ki is at most 10 nM. The IC50 on NEP enzyme was at most 100 nM.

For `CCOc1cc(C(=O)N[C@@H](CS)Cc2ccccc2)nn1Cc1ccc(-c2ccccc2S(=O)(=O)NC(C)=O)cc1` [Example 6-2, 1-(2′-Acetylsulfamoyl-biphenyl-4-ylmethyl)-5-ethoxy-1H-pyrazole-3-carboxylic acid ((R)-1-benzyl-2-mercaptoethyl)amide], the Ki at human AT1 receptor is at most 10 nM. Moreover, the IC50 on NEP enzyme is at most 100 nM.

As to `CCCc1cc(C(=O)N[C@@H](CC(=O)O)Cc2ccccc2C)nn1Cc1ccc(-c2ccccc2S(=O)(=O)NC(C)=O)cc1` [Example 6-26, (R)-3-{[1-(2′-Acetylsulfamoylbiphenyl-4-ylmethyl)-5-propyl-1H-pyrazole-3-carbonyl]amino}-4-o-tolylbutyric acid], on human AT1 receptor, the Ki was at most 10 nM. For the same molecule, the IC50 at NEP enzyme is at most 1000 nM.

In the case of `CCCc1cc(C(=O)N[C@H](Cc2ccccc2)CN(O)C=O)nn1Cc1ccc(-c2ccccc2S(=O)(=O)NC(C)=O)cc1` [Example 6-13, 1-(2′-Acetylsulfamoyl-biphenyl-4-ylmethyl)-5-propyl-1H-pyrazole-3-carboxylic acid [(R)-1-benzyl-2-(formyl-hydroxy-amino)-ethyl]amide], the Ki at human AT1 receptor was at most 10 nM. Besides, the IC50 on NEP enzyme was at most 100 nM.

For the molecule `CCCc1cc(C(=O)N[C@@H](CC(=O)NO)Cc2ccccc2)nn1Cc1ccc(-c2ccccc2S(=O)(=O)NC(C)=O)c(F)c1` [Example 6-17, 1-(2′-Acetylsulfamoyl-2-fluorobiphenyl-4-ylmethyl)-5-propyl-1H-pyrazole-3-carboxylic acid ((R)-1-hydroxycarbamoylmethyl-2-phenylethyl)amide], the Ki on human AT1 receptor was at most 10 nM. For the same molecule, at NEP enzyme, the IC50 is at most 100 nM.

Regarding `CCCc1cc(C(=O)N[C@@H](CC(=O)OC)Cc2ccccc2Cl)nn1Cc1ccc(-c2ccccc2-c2nnn[nH]2)cc1` [Example 3-28, (R)-4-(2-Chlorophenyl)-3-({5-propyl-1-[2′-(1H-tetrazol-5-yl)biphenyl-4-ylmethyl]-1H-pyrazole-3-carbonyl}amino)butyric acid methyl ester], the Ki at human AT1 receptor is at most 10 nM. The IC50 on NEP enzyme is at most 10000 nM.

Take `CCCc1cc(C(=O)N[C@@H](CC(=O)NO)Cc2ccccc2)nn1Cc1ccc(-c2ccccc2S(=O)(=O)NC(C)=O)cc1F` [Example 6-16, 1-(2′-Acetylsulfamoyl-3-fluorobiphenyl-4-ylmethyl)-5-propyl-1H-pyrazole-3-carboxylic acid ((R)-1-hydroxycarbamoylmethyl-2-phenylethyl)amide]: the Ki at human AT1 receptor is at most 10 nM. Besides, at NEP enzyme, the IC50 is at most 100 nM.

As for `CCCc1cc(C(=O)N[C@H](Cc2ccccc2)[C@@H](O)C(=O)O)nn1Cc1ccc(-c2ccccc2C(=O)O)cc1` [Example 9-5, 4′-[3-((1R,2R)-1-Benzyl-2-carboxy-2-hydroxyethylcarbamoyl)-5-propylpyrazol-1-ylmethyl]biphenyl-2-carboxylic acid], at human AT1 receptor, the Ki was at most 100 nM. Also, at NEP enzyme, the IC50 is at most 100 nM.

For the molecule `CCCc1cc(C(=O)N[C@@H](CC(=O)O)Cc2ccccc2Cl)nn1Cc1ccc(-c2ccccc2S(=O)(=O)NC(C)=O)cn1` [Example 15-4, (R)-3-({1-[5-(2-Acetylsulfamoylphenyl)pyridin-2-ylmethyl]-5-propyl-1H-pyrazole-3-carbonyl}amino)-4-(2-chlorophenyl)butyric acid], on human AT1 receptor, the Ki was at most 100 nM. The IC50 on NEP enzyme was at most 1000 nM.

Turning to `CCCc1cc(C(=O)N[C@H](Cc2ccccc2)[C@@H](O)C(=O)O)nn1Cc1ccc(-c2ccccc2S(=O)(=O)NC(=O)c2ccccc2)cc1` [Example 7-12, (2R,3R)-3-{[1-(2′-Benzoylsulfamoylbiphenyl-4-ylmethyl)-5-propyl-1H-pyrazole-3-carbonyl]amino}-2-hydroxy-4-phenylbutyric acid], the Ki at human AT1 receptor was at most 10 nM. Besides, the IC50 at NEP enzyme was at most 1000 nM.

Regarding `CCCc1cc(C(=O)N[C@H](Cc2ccccc2)[C@@H](O)C(=O)O)nn1Cc1ccc(-c2ccccc2S(=O)(=O)NC(C)=O)cn1` [Example 15-3, (2R,3R)-3-({1-[5-(2-Acetylsulfamoylphenyl)pyridin-2-ylmethyl]-5-propyl-1H-pyrazole-3-carbonyl}amino)-2-hydroxy-4-phenylbutyric acid], on human AT1 receptor, the Ki is at most 100 nM. Moreover, the IC50 on NEP enzyme is at most 100 nM.

For the molecule `CCCc1cc(C(=O)N[C@H](Cc2ccccc2)CN(O)C=O)nn1Cc1ccc(-c2ccccc2-c2nnn[nH]2)cc1` [Example 3-14, 5-Propyl-1-[2′-(1H-tetrazol-5-yl)-biphenyl-4-ylmethyl]-1H-pyrazole-3-carboxylic acid [(R)-1-benzyl-2-(formylhydroxyamino)ethyl]amide], the Ki at human AT1 receptor was at most 10 nM. The IC50 at NEP enzyme is at most 100 nM.

For the molecule `CCCc1cc(C(=O)N[C@H](CC(C)C)[C@@H](O)C(=O)O)nn1Cc1ccc(-c2ccccc2-c2nnn[nH]2)nc1` [Example 14-8, (2R,3R)-2-Hydroxy-5-methyl-3-[(5-propyl-1-{6-[2-(1H-tetrazol-5-yl)phenyl]pyridin-3-ylmethyl}-1H-pyrazole-3-carbonyl)amino]hexanoic acid], the Ki at human AT1 receptor was at most 10 nM. The IC50 at NEP enzyme is at most 1000 nM.

Regarding `CCCc1cc(C(=O)N[C@@H](CC(=O)NO)Cc2ccccc2Cl)nn1Cc1ccc(-c2ccccc2-c2nnn[nH]2)cc1` [Example 3-15, 5-Propyl-1-[2′-(1H-tetrazol-5-yl)-biphenyl-4-ylmethyl]-1H-pyrazole-3-carboxylic acid [(R)-2-(2-chlorophenyl)-1-hydroxycarbamoylmethylethyl]amide], at human AT1 receptor, the Ki is at most 10 nM. In addition, the IC50 on NEP enzyme is at most 100 nM.

With `CCCc1cc(C(=O)N[C@H](Cc2ccccc2)[C@H](O)C(=O)O)nn1Cc1ccc(-c2ccccc2-c2nnn[nH]2)nc1` [Example 14-9, (2S,3R)-2-Hydroxy-4-phenyl-3-[(5-propyl-1-{6-[2-(1H-tetrazol-5-yl)phenyl]pyridin-3-ylmethyl}-1H-pyrazole-3-carbonyl)amino]butyric acid], the Ki on human AT1 receptor is at most 10 nM. The IC50 on NEP enzyme was at most 100 nM.

Take `CCOc1cc(C(=O)N[C@H](Cc2ccccc2)[C@@H](O)C(=O)O)nn1Cc1ccc(-c2ccccc2S(=O)(=O)NC(C)=O)cc1` [Example 6-3, (2R,3R)-3-{[1-(2′-Acetylsulfamoylbiphenyl-4-ylmethyl)-5-ethoxy-1H-pyrazole-3-carbonyl]amino}-2-hydroxy-4-phenyl-butyric acid]: the Ki on human AT1 receptor was at most 100 nM. The IC50 on NEP enzyme was at most 1000 nM.

In the case of `CCOc1cc(C(=O)N[C@H](Cc2ccccc2)[C@@H](O)C(=O)O)nn1Cc1ccc(-c2ccccc2-n2nn[nH]c2=O)cc1` [Example 16-7, (2R,3R)-3-({5-Ethoxy-1-[2′-(5-oxo-4,5-dihydrotetrazol-1-yl)-biphenyl-4-ylmethyl]-1H-pyrazole-3-carbonyl}amino)-2-hydroxy-4-phenylbutyric acid], the Ki at human AT1 receptor is at most 10 nM. Further, the IC50 on NEP enzyme was at most 100 nM.

Regarding `CCCc1cc(C(=O)N[C@@H](CC(=O)O)Cc2ccccc2Cl)nn1Cc1ccc(-c2ccccc2S(=O)(=O)NC(=O)COC)cc1` [Example 7-18, (R)-4-(2-Chlorophenyl)-3-({1-[2′-(2-methoxyacetylsulfamoyl)biphenyl-4-ylmethyl]-5-propyl-1H-pyrazole-3-carbonyl}amino)butyric acid], the Ki on human AT1 receptor is at most 10 nM. Also, the IC50 on NEP enzyme is at most 1000 nM.

`CCCc1cc(C(=O)N[C@H](Cc2ccccc2)[C@@H](O)C(=O)O)nn1Cc1ccc(-c2ccccc2S(=O)(=O)NC(=O)C(C)C)cc1` [Example 6-12, (2R,3R)-2-Hydroxy-3-{[1-(2′-isobutyrylsulfamoylbiphenyl-4-ylmethyl)-5-propyl-1H-pyrazole-3-carbonyl]amino}-4-phenylbutyric acid]: the Ki on human AT1 receptor was at most 10 nM. Moreover, the IC50 on NEP enzyme was at most 1000 nM.

The values above are taken from patent publication US8350027B2, “Dual-acting pyrazole antihypertensive agents” (Theravance, Inc., priority 2009, dated 2013).
